In US11925653B2, “Combination therapy effective against microorganisms, including drug resistant microorganisms” (Fleurir ABX LLC, priority 2021, dated 2024):
Marks after values point to notes of the source that are not given here.

Key:
[1] = representative pharmacokinetic parameters; format: in vivo
Text: The therapeutically effective amount may be modified by pharmacokinetic, and pharmacodynamic analysis as is understood in the field. In some embodiments, the novel composition may be provided prophylactically or preventatively or protectively, which may, in some instances, be at or below a therapeutically effective amount.

K. pneumonia = assay: MIC and synergy checkerboard assay, agar dilution; format: cell-based
Experimental: (§1) The described novel combination was tested against both reference, and clinically resistant strains of S. aureus, E, coli, K. pneumoniae, and P. aeruginosa. Reference and clinical isolates were obtained from the American Type Culture Collection (ATCC, Manasas, VA.) and International Health Management Associates, Inc. (Schaumberg, IL). Bacteria were cultured in trypticase soy broth, concentrated 10-fold by centrifugation, and cryopreserved in the same medium containing 20% glycerol by holding at −80° C. Every two weeks a small amount of frozen culture was removed aseptically, and streaked on fresh trypticase soy agar plates to act as a working inoculum. Following overnight growth at about 37° C., the plates were wrapped in parafilm, and held at about 4° C. Bacteria (4-5 colonies) were then aseptically transferred into broth growth medium for assays as needed.
(§2) Minimum inhibitory concentration (MIC) assays were performed in a manner as described for the CLSI Agar dilution or broth microdilution assay guideline (see, Clinical Laboratory Standards Institute, 2009, Methods for Dilution Antimicrobial Susceptibility Tests for Bacteria That Grow Aerobically; Approved Standard, Eighth Edition, M07-A8, Vol. 29, No. 2). For example, known antibiotics or the compositions described herein were dissolved, serially diluted, and then added to tempered molten Mueller-Hinton Agar before pouring of plates; or were dissolved, and then serially diluted in 100 μL cation-adjusted Mueller-Hinton broth across the assay plate in the classical 2-fold geometric format. D-glucose-6-phosphate was included as a medium supplement in both agar, and broth at a concentration of 50 mg/L. Antibiotic concentrations for agar assay were at the final concentration. Antibiotic concentrations for broth microdilution in each well at this point were double what the final assay concentration would be. Bacterial inocula were prepared by swabbing several colonies from a fresh agar plate, and re-suspending the bacteria to a density that was the 0.5 McFarland turbidity standard, considered close or equivalent to 1×10^8 CFU/mL. For agar dilution, a steers replicator was utilized to deliver 1×10^4 CFU/spot. For broth microdilution, the bacterial inocula were diluted in the cation-adjusted Mueller-Hinton broth to 1×10^6 CFU/mL, and 100 μL was overlayered onto the wells containing a diluted antibiotic or a composition described. Following incubation as per the guideline, results were recorded as growth or no growth, and the lowest concentration of the antibiotic or the composition described where no growth was observed was declared the MIC.
(§3) To assay for synergy of antibacterial combinations, a recognized synergy checkerboard assay, adapted from the CLSI guideline microdilution assay, was utilized (see Eliopoulos, G. M., and Moellering, R. C, Jr., 1996. Antimicrobial Combinations, pg. 330-396. In: Lorian, V. (Ed.), Antibiotics in Laboratory Medicine, 4th Ed., Williams & Wilkins; Baltimore, MD). In the case of the agar dilution method, each antibiotic alone, or in combination was added to agar prior to plate pouring. For broth microdilution, the first compound (or antibiotic or agent) was diluted in cation-adjusted Mueller-Hinton broth across the plate along the horizontal axis with each well in a row containing 50 μL of an identical concentration of compound (or antibiotic). Along the vertical axis a dilution series of the second compound (or antibiotic) was dispensed. At this point the drug concentrations are four-fold of the final desired working concentration. […] Following incubation, wells with no growth are noted. […] FIC=(MIC-A combination/MIC-A alone)+(MIC-B combination/MIC-B alone).
(§4) In the above, FIC: Synergy=FIC<0.5; Additive=FIC>0.5-1; Indifferent=FIC>1-2; Antagonism=FIC>2-4.

P. aeruginosa = assay: MIC and synergy checkerboard assay, agar dilution; format: cell-based
Experimental: as §1, §2, §3, §4

Escherichia coli [2] = assay: MIC and synergy checkerboard assay, agar dilution; format: cell-based
Experimental: as §1, §2, §3, §4

Enterococcus faecalis = assay: minimum bactericidal concentration (MBC) assay; format: cell-based
Experimental: (§5) Synergy was also assayed by both agar, and broth microdilution methods. Additional information gathered about the synergistic effect of the described composition as a combination therapy was evaluated by determining bacterial killing effect. This was performed as described above for the checkerboard synergy assay with the exception that the bacterial count in an assay well was determined by plating at the beginning of the experiment, and identifying at the end of incubation for an assay well where growth was inhibited. This has been adapted from both the broth microdilution, and the bactericidal assays (Clinical Laboratory Standards Institute (1999) Methods for Determining Bactericidal Activity of Antimicrobial Agents; Approved Guideline M26-A, Vol. 19, No. 18). […] The value derived was the reduction in bacterial numbers (viability) for the compounds when alone versus the described composition comprising the combined antibiotics.
(§6) As there is no published definition for bactericidal synergy, MIC metric was utilized.

Staphylococcus aureus = assay: minimum bactericidal concentration (MBC) assay; format: cell-based
Experimental: as §5, §6

Pseudomonas aeruginosa = assay: minimum bactericidal concentration (MBC) assay; format: cell-based
Experimental: as §5, §6

Escherichia coli [3] = assay: minimum bactericidal concentration (MBC) assay; format: cell-based
Experimental: as §5, §6

For `C[C@@H]1O[C@@H]1P(=O)(O)O` [Fosfomycin, cis-1,2-epoxypropyl phosphonic acid], the kel (elimination rate constant) ([1]; Dose: Fosfomycin 3000 mg, trimethoprim 720 mg) was 0.122 h⁻¹, the half-life ([1]; in vivo, 3000 mg, read-out: T ½ (converted)) was 5.7 h and the Tmax ([1]; in vivo, read-out: Tmax) was 2 h. The “MIC (Combo as F/DP/SM; second compound as DP/SM)” value (“MIC” for short) (K. pneumonia; K. pneumonia 848788) was 256* μg/ml, the “MIC” value (K. pneumonia; K. pneumonia 857147) was 32 µg/mL and the “MIC” value (K. pneumonia; K. pneumonia 857187) was 128* μg/ml. The “MIC” value (K. pneumonia; K. pneumonia 868968) was 256* μg/ml, the “MIC” value (K. pneumonia; K. pneumonia 868972) was 128* μg/ml and the “MIC” value (K. pneumonia; K. pneumonia 869028) was 256* μg/ml. The “MIC” value (K. pneumonia; K. pneumonia 870964) was 256* μg/ml, the “MIC” value (K. pneumonia; K. pneumonia 875638) was 64 µg/mL and the “MIC” value (K. pneumonia; K. pneumonia 892483) was 256* μg/ml. The “MIC” value (K. pneumonia; K. pneumonia 926439) was 128* μg/ml, the “MIC” value (P. aeruginosa; P. aeruginosa 826882) was 128* μg/ml and the “MIC” value (P. aeruginosa; P. aeruginosa 880238) was 128* μg/ml. The “MIC” value (P. aeruginosa; P. aeruginosa 889058) was 128* μg/ml, the “MIC” value (P. aeruginosa; P. aeruginosa 906939) was 128* μg/ml and the “MIC” value (P. aeruginosa; P. aeruginosa 914881) was 128* μg/ml. The “MIC” value (P. aeruginosa; P. aeruginosa 924190) was 256* μg/ml, the “MIC” value (P. aeruginosa; P. aeruginosa 926474) was 64 µg/mL and the “MIC” value (P. aeruginosa; P. aeruginosa 945543) was 128* μg/ml. For the same molecule, the “MIC” value (P. aeruginosa; P. aeruginosa 945545) was 128* μg/ml, the “MIC” value (P. aeruginosa; P. aeruginosa 945748) was 128* μg/ml and the “MIC” value (P. aeruginosa; P. aeruginosa PAO1) was 32 µg/mL. The “MIC” value (Escherichia coli [2]; Escherichia coli 846439) was 64 µg/mL, the “MIC” value (Escherichia coli [2]; Escherichia coli 846446) was 4 µg/mL and the “MIC” value (Escherichia coli [2]; Escherichia coli 846450) was 32 µg/mL. The “MIC” value (Escherichia coli [2]; Escherichia coli 846455) was 128* μg/ml, the “MIC” value (Escherichia coli [2]; Escherichia coli 847149) was 128* μg/ml and the “MIC” value (Escherichia coli [2]; Escherichia coli 854535) was 128* μg/ml. The “MIC” value (Escherichia coli [2]; Escherichia coli 854566) was 128* μg/ml, the “MIC” value (Escherichia coli [2]; Escherichia coli 857021) was 64 µg/mL and the “MIC” value (Escherichia coli [2]; Escherichia coli 863078) was 128* μg/ml. For the same molecule, the “MIC” value (Escherichia coli [2]; Escherichia coli 863686) was 64 µg/mL, the “MIC” value (Escherichia coli [2]; Escherichia coli ATCC 25922) was 16 µg/mL and the “MBC, lowest concentration providing a >3-log reduction within 24 hours (Combo as F/DP/SM; second compound as DP/SM)” value (Enterococcus faecalis; Enterococcus faecalis (ATCC 29212)) was ≥512 μg/ml. The “MBC, lowest concentration providing a >3-log reduction within 24 hours (Combo as F/DP/SM; second compound as DP/SM)” value (Enterococcus faecalis; Enterococcus faecalis (MGH-01) (VanA)) was ≥512 μg/ml, the “MBC, lowest concentration providing a >3-log reduction within 24 hours (Combo as F/DP/SM; second compound as DP/SM)” value (Enterococcus faecalis; Enterococcus faecalis (MGH-06)) was 512 μg/ml and the “MBC, lowest concentration providing a >3-log reduction within 24 hours (Combo as F/DP/SM; second compound as DP/SM)” value (Staphylococcus aureus; Staphylococcus aureus (918019 - MRSA)) was 128 μg/ml. For the same molecule, the “MBC, lowest concentration providing a >3-log reduction within 24 hours (Combo as F/DP/SM; second compound as DP/SM)” value (Staphylococcus aureus; Staphylococcus aureus (959797 - MRSA)) was 64 μg/ml, the “MBC, lowest concentration providing a >3-log reduction within 24 hours (Combo as F/DP/SM; second compound as DP/SM)” value (Staphylococcus aureus; Staphylococcus aureus (ATCC 29213 - MSSA)) was 128 μg/ml and the “MBC, lowest concentration providing a >3-log reduction within 24 hours (Combo as F/DP/SM; second compound as DP/SM)” value (Staphylococcus aureus; Staphylococcus aureus (ATCC 33591) (MRSA)) was 256 μg/ml. The “MBC, lowest concentration providing a >3-log reduction within 24 hours (Combo as F/DP/SM; second compound as DP/SM)” value (Staphylococcus aureus; Staphylococcus aureus (MGH-04)) was 256 μg/ml, the “MBC, lowest concentration providing a >3-log reduction within 24 hours (Combo as F/DP/SM; second compound as DP/SM)” value (Staphylococcus aureus; Staphylococcus aureus (USA-300 CDC- MRSA)) was 256 μg/ml and the “MBC, lowest concentration providing a >3-log reduction within 24 hours (Combo as F/DP/SM; second compound as DP/SM)” value (Pseudomonas aeruginosa; Pseudomonas aeruginosa (924190)) was >512 μg/ml. The “MBC, lowest concentration providing a >3-log reduction within 24 hours (Combo as F/DP/SM; second compound as DP/SM)” value (Pseudomonas aeruginosa; Pseudomonas aeruginosa (985543)) was 512 μg/ml, the “MBC, lowest concentration providing a >3-log reduction within 24 hours (Combo as F/DP/SM; second compound as DP/SM)” value (Escherichia coli [3]; Escherichia coli (854535)) was 256 μg/ml and the “MBC, lowest concentration providing a >3-log reduction within 24 hours (Combo as F/DP/SM; second compound as DP/SM)” value (Escherichia coli [3]; Escherichia coli (928017)) was 256 μg/ml. The “MBC, lowest concentration providing a >3-log reduction within 24 hours (Combo as F/DP/SM; second compound as DP/SM)” value (Escherichia coli [3]; Escherichia coli (ATCC 25922)) was 32 μg/ml.
